Values after ≈ are worked out from the molar mass of the structure shown. Each block holds one compound with its values, some of them ahead of it.
Columns and labels:
[1] = molecular target: T1, Sortase A (Staphylococcus aureus, UniProt Q9S446); experiment: Inhibition of Staphylococcus aureus SrtA expressed in Escherichia coli BL21 (DE3) cells using Abz-LPETG-Dap(Dnp) as substrate preincubated for 30 mins followed by substrate addition and further incubated for 30 mins by HPLC analysis
T1 sequence (Q9S446 whole entry): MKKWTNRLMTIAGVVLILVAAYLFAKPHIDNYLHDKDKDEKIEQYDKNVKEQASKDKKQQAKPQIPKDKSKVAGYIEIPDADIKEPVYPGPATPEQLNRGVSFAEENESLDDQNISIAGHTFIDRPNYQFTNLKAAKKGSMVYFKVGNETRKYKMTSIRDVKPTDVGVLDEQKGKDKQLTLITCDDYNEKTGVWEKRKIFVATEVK

[2] = molecular target: T2, Sortase A (Staphylococcus aureus) (UniProt Q9S446); experiment: Inhibition of Staphylococcus aureus SrtA expressed in Escherichia coli BL21 (DE3) cells using Abz-LPETG-Dap(Dnp) as substrate assessed as kinact/ki
T2 sequence (whole entry): T1 sequence (Q9S446 whole entry)

[3] = molecular target: T1, Sortase A; experiment: Inhibition of Staphylococcus aureus SrtA using […] as substrate by FRET assay
[4] = molecular target: T1, Sortase A; experiment: Inhibition of Staphylococcus aureus SrtA using FRET substrate incubated for 1 hr by FRET assay
[5] = molecular target: T1, Sortase A; experiment: Binding affinity to Staphylococcus aureus SrtA assessed as inhibition constant
[6] = molecular target: T2, Sortase A (Staphylococcus aureus); experiment: Binding affinity to Staphylococcus aureus SrtA using Abz-DNP as substrate assessed as second order rate constant of inhibition, kinact/ki
[7] = molecular target: T2, Sortase A (Staphylococcus aureus); experiment: Binding affinity to Staphylococcus aureus SrtA assessed as first order rate constant of inactivation
[8] = molecular target: T1, Sortase A; experiment: Inhibition of Staphylococcus aureus USA 300 SrtA expressed in Escherichia coli BL21 (DE3) cells using Dabcyl-QALPETGEE-Edans as substrate preincubated for 30 mins followed by substrate addition and further incubated for 1 hr by FRET assay
[9] = test system: Staphylococcus aureus; experiment: Inhibition of biofilm formation in Staphylococcus aureus ATCC 29213 at 100 uM incubated for 24 hrs by safranin staining based analysis relative to control; type: functional
[10] = test system: Staphylococcus aureus; experiment: Inhibition of biofilm formation in Staphylococcus aureus ATCC 6538 at 100 uM incubated for 24 hrs by safranin staining based analysis relative to control; type: functional
[11] = test system: Staphylococcus aureus; experiment: Inhibition of biofilm formation in Staphylococcus aureus ATCC 25923 at 100 uM incubated for 24 hrs by safranin staining based analysis relative to control; type: functional
[12] = test system: Staphylococcus aureus; experiment: Antibacterial activity against Staphylococcus aureus; type: functional
[13] = molecular target: T1, Sortase A; experiment: Inhibition of C-terminal 6His-tagged recombinant Staphylococcus aureus SrtA with 1 to 59 residues truncated from N-terminus expressed in Escherichia coli BL21 (DE3) using dabcyl-QALPETGEE-edans as substrate preincubated for 1 hr followed by substrate addition and measured for 1 hr by FRET assay
[14] = test system: Staphylococcus aureus; experiment: Inhibition of biofilm formation in Staphylococcus aureus ATCC 6538 incubated for 24 hrs by crystal violet staining based analysis; type: functional, organism-based; conditions: ATCC 6538, 24 h
[15] = molecular target: T1, Sortase A; experiment: Inhibition of Staphylococcus aureus SrtA transpeptidation activity
[16] = molecular target: T1, Sortase A; experiment: Inhibition of wild type recombinant Staphylococcus aureus ATCC 25904 Sortase A expressed in Escherichia coli BL21 using Dabcyl-QALPETGEE-Edans as substrate incubated for 30 mins followed by substrate addition and measured after 60 mins by FRET assay

IC50 [3]: 67 µM
SMILES: O=c1cc(-c2ccc(O)cc2)oc2cc(O)c([C@@H]3O[C@H](CO)[C@@H](O)[C@H](O)[C@H]3O)c(O)c12 [ISOVITEXIN]

IC50 [4]: 36.2 µM
SMILES: O=c1ccc2cc(O)c(O)cc2o1 [ESCULETIN]

IC50 [15]: 161 µM
SMILES: O=C(/C=C/c1ccc(O)cc1)O[C@H]1[C@@H](O)[C@H](O)C[C@](O)(C(=O)O)[C@H]1O

IC50 [16]: 65.7 µM
MIC [12]: 1600 µM (≈ 509 µg/mL)
SMILES: COc1ccc(CCc2cc(OC)c(OC)c(OC)c2)cc1O

Continued, compound first:

SMILES: O=S(=O)(/C=C\C(F)(F)F)c1ccccc1
IC50 [1]: 190 µM
Ratio [2]: 90 M⁻¹ min⁻¹

SMILES: O=C1C[C@H]2O[C@H](CCc3ccccc3)C3=C(C(=O)C=CC3=O)[C@H]2O1
Ki [5]: 3.57 µM
Ratio [6]: 1.09 10^4/M/min
kinact/Ki [6]: 183 M⁻¹ s⁻¹
Kinact [7]: 3.88 10^-2/min

SMILES: O=C(/C=C/c1ccccc1)c1ccccc1 [CHALCONE]
IC50 [8]: 53.2 µM

SMILES: CC(=O)/C(=N/Nc1ccccc1)C(=O)O
inhibition at 100 µM [9]: 60%
inhibition at 100 µM [10]: 60%
inhibition at 100 µM [11]: 60%
MIC [12]: > 270 µM
IC50 [13]: 80 µM

SMILES: CCOC(=O)/C(=N\Nc1c(F)cccc1F)C(=O)c1cc(C)nn1CC
IC50 [14]: 0.9 µM
MIC [12]: > 200 µM
IC50 [13]: 75 µM
